Patent US20240066003A1, “NEURODEVELOPMENTAL DISORDER THERAPY” (Anavex Life Sciences Corp., priority 2016, published 2024)

Legend:
[1] = system: heterozygous MECP2knockout mice (HET); experiment: NeuroCube gait analysis; format: in vivo
Experimental: Studies employed wild type (WT) mice and heterozygous MECP2knockout mice (HET) All mice were provided by Jackson Laboratory, Bar Harbor, Maine. HET mice were Bird mice (Jackson Laboratories, Bar Harbor, ME, B6.129P2(C)-Mecp2^tm1.1Bird/Stock Number: 003890) were obtained by crossing het females with wild type (WT) males (C57B/6J). […] Mecp2 females testing at ˜8 and ˜12 weeks of age WT—vehicle (0.25% MC/dH2O) HET—vehicle (0.25% MC/dH2O) HET—A2-733 (10 mg/kg) HET—A2-733 (30 mg/kg) Chronic dosing (p.o.) daily, starting at ˜5.5 weeks of age and continuing through the 12-week behavioral testing time point 60 min pre-treatment during behavioral testing. Neurological testing via a platform that employs computer vision to detect changes in gait geometry and gait dynamics in rodent models of neurological disorders, pain, and neuropathies. Complex bio-informatics algorithms similar to those used in SmartCube® are employed to detect a disease phenotype and screen compounds. (NeuroCube, PsychoGenics, Tarrytown NY) A platform that employs computer vision to detect changes in gait geometry and gait dynamics in rodent models of neurological disorders, pain, and neuropathies. Mice are allowed to walk in the chamber for 5 min. When the paw touches the screen, LED light reflects creating bright spots. Images are captured and processed using proprietary computer vision and bio-informatics data mining algorithms.

Rett syndrome [2] = experiment: Example 2 cardiac pulse rate in Rett syndrome patient; format: in vivo, human; conditions: person, oral 20 mg daily for 5 days
Source text: A person presents with Rett syndrome. Their real time cardiac pulse rate is monitored. Prior to commencing therapy, their heart rate is 49 beats per minute with substantial variability.

Rett syndrome [3] = experiment: Example 3 seizure reduction in Rett syndrome patient; format: in vivo, human; conditions: oral 2 mg daily, after 5 days, 6 to 10 seizures per day before therapy
Experimental: A person presents with Rett syndrome. They experience 6 to 10 seizures per day prior to commencing therapy. They begin treatment with oral doses of A2-73 at 2 mg daily. After 5 days of treatment, the number of daily seizures is reduced to 3 or fewer.

Angelman syndrome = experiment: Example 5 sleep and seizures in Angelman syndrome patient; format: in vivo, human; conditions: person, oral 30 mg/day, after 15 days
Experimental: A person presents with Angelman syndrome. They experience disturbed sleep and frequent seizures prior to commencing therapy. They begin treatment with oral doses of A2-73 at 30 mg/day.

Smith—Magenis syndrome = experiment: Example 7 sleep in Smith-Magenis syndrome patient; format: in vivo, human; conditions: person, oral 10 mg/day, after 15 days
Experimental: A person presents with Smith—Magenis syndrome. They experience disturbed sleep. They begin treatment with oral doses of A2-73 at 10 mg/day.

multiple sclerosis = experiment: Example 8 gadolinium-enhanced MRI lesions in multiple sclerosis patient; format: in vivo, human; conditions: person, oral 40 mg every fifth day, weeks 12, 16, 20 and 24 vs 12 week pretreatment MRI
Experimental: A person presents with multiple sclerosis. They begin treatment with oral doses of A2-73 at 40 mg every fifth day.

[4] = system: relapsing-remitting multiple sclerosis; experiment: Example 9 gadolinium-enhancing MRI lesions in relapsing-remitting multiple sclerosis patient; format: in vivo, human; conditions: person, oral 30 mg every other day for 3 months, up to month 6
Experimental: A person presents with relapsing-remitting multiple sclerosis. They begin treatment with oral doses of A2-73 at 30 mg every other day for 3 months.

sigma-1 receptors = sigma-1 receptors (Homo sapiens, UniProt Q99720); conditions: believed to bind; cited from earlier work
sigma-1 receptors, sequence (Q99720 whole entry): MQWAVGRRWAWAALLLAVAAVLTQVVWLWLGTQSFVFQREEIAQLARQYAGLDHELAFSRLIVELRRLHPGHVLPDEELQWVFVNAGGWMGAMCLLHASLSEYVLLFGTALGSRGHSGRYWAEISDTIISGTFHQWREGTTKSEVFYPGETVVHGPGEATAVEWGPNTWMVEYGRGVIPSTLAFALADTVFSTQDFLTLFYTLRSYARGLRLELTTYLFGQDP

[5] = system: amyloid β25-35 peptide (Aβ25-35) injected mice; conditions: cited from earlier work

CN(C)CC1CCOC1(c1ccccc1)c1ccccc1.Cl (stereo not drawn) [A2-73, tetrahydro-N,N-dimethyl-2,2-diphenyl-3-furanmethanamine hydrochloride]
NeuroCube GAIT, Het vehicle v. Het AV2-73 ([1]; 8 week, 10 mg/kg, p > 0.09): 63, p > 0.09
NeuroCube Body Motion, Het vehicle v. Het AV2-73 ([1]; 8 week, 10 mg/kg, p > 0.20): 60, p > 0.20
NeuroCube Correlation, Het vehicle v. Het AV2-73 ([1]; 8 week, 10 mg/kg, p > 0.40): 56, p > 0.40
NeuroCube Paw Positioning, Het vehicle v. Het AV2-73 ([1]; 8 week, 10 mg/kg, p > 0.57): 53, p > 0.57
NeuroCube Overall, Het vehicle v. Het AV2-73 ([1]; 8 week, 10 mg/kg, p > 0.69): 53, p > 0.69
NeuroCube Paw Features, Het vehicle v. Het AV2-73 ([1]; 8 week, 10 mg/kg, p > 0.78): 52, p > 0.78
NeuroCube Body Motion, Het vehicle v. Het AV2-73 ([1]; 8 week, 30 mg/kg, p < 0.003): 81, p < 0.003
NeuroCube Correlation, Het vehicle v. Het AV2-73 ([1]; 8 week, 30 mg/kg, p < 0.005): 76, p < 0.005
NeuroCube GAIT, Het vehicle v. Het AV2-73 ([1]; 8 week, 30 mg/kg, p < 0.05): 69, p < 0.05
NeuroCube Overall, Het vehicle v. Het AV2-73 ([1]; 8 week, 30 mg/kg, p > 0.24): 62, p > 0.24
NeuroCube Paw Positioning, Het vehicle v. Het AV2-73 ([1]; 8 week, 30 mg/kg, p > 0.36): 57, p > 0.36
NeuroCube Paw Features, Het vehicle v. Het AV2-73 ([1]; 8 week, 30 mg/kg, p > 0.56): 55, p > 0.56
NeuroCube separation versus Het vehicle ([1]; 8 weeks of age): no separation
recovery of the overall signature ([1]; 8 weeks of age, NeuroCube): 9-17%
NeuroCube GAIT, Het vehicle v. Het AV2-73 ([1]; 12 week, 10 mg/kg, p > 0.29): 57, p > 0.29
NeuroCube Paw Features, Het vehicle v. Het AV2-73 ([1]; 12 week, 10 mg/kg, p > 0.35): 56, p > 0.35
NeuroCube Paw Positioning, Het vehicle v. Het AV2-73 ([1]; 12 week, 10 mg/kg, p > 0.57): 53, p > 0.57
NeuroCube Correlation, Het vehicle v. Het AV2-73 ([1]; 12 week, 10 mg/kg, p > 0.70): 53, p > 0.70
NeuroCube Overall, Het vehicle v. Het AV2-73 ([1]; 12 week, 10 mg/kg, p > 0.70): 53, p > 0.70
NeuroCube Body Motion, Het vehicle v. Het AV2-73 ([1]; 12 week, 10 mg/kg, p > 0.71): 52, p > 0.71
NeuroCube Correlation, Het vehicle v. Het AV2-73 ([1]; 12 week, 30 mg/kg, p < 0.03): 69, p < 0.03
NeuroCube Body Motion, Het vehicle v. Het AV2-73 ([1]; 12 week, 30 mg/kg, p < 0.04): 68, p < 0.04
NeuroCube Overall, Het vehicle v. Het AV2-73 ([1]; 12 week, 30 mg/kg, p > 0.21): 61, p > 0.21
NeuroCube GAIT, Het vehicle v. Het AV2-73 ([1]; 12 week, 30 mg/kg, p > 0.37): 57, p > 0.37
NeuroCube Paw Positioning, Het vehicle v. Het AV2-73 ([1]; 12 week, 30 mg/kg, p > 0.62): 53, p > 0.62
NeuroCube Paw Features, Het vehicle v. Het AV2-73 ([1]; 12 week, 30 mg/kg, p > 0.65): 53, p > 0.65
heart rate variability (Rett syndrome [2]): variability is reduced
average heart rate (Rett syndrome [2]; 49 beats per minute before therapy): 75 beats per minutes
number of daily seizures (Rett syndrome [3]): ≤ 3
reduction of instances of seizure (Angelman syndrome): 50%
sleep (Angelman syndrome): markedly less disturbed
sleep (Smith—Magenis syndrome): markedly less disturbed
total number of gadolinium-enhanced lesions on MRI (multiple sclerosis): substantially reduced
number of total gadolinium-enhancing lesions on monthly brain MRI [4]: significantly lower number
affinity for sigma-1 receptors (sigma-1 receptors): low micromolar range
Aβ25-35-induced P-Akt decrease and P-GSK-3β increase ([5]; Lahmy et al. 2013): blocked
hyperphosphorylation of Tau on physiological (AT-8) and pathological (AT-100) epitopes ([5]; in the dose-range tested): attenuated
oxidative stress, caspases induction, cellular loss and learning and memory deficits ([5]; mice one week after the i.v. injection of oligomeric Aβ25-35 (Villard et al. 2011)): attenuating
Aβ25-35-induced endogenous Aβ1-42 seeding ([5]; mouse, in vivo): decreasing
